Drawing on US20240116910A1, “Heterocycles as WIP1 Inhibitors” (PMV Pharmaceuticals, Inc., priority 2022, published 2024), this text covers IC50 for 24 molecules.

Molecules are shown by their SMILES.

The term IC50 denotes the concentration that gives 50% inhibition.

Assay [1] addresses recombinant His-tag Wip1(2-420) protein (amino acids #2-420) (Homo sapiens (Human), UniProt O15297). As to the kind of experiment: Wip1(2-420) phosphatase enzyme FDP assay. To be noted: fluorescein diphosphate (FDP) substrate, RT 2 hours, fluorescence Ex485/Em535; read-out: WIP1 (Truncated 2-420) FDP Assay: IC50. Type of assay: biochemical.
The target in assay [2] is recombinant His-tag Wip1 full length protein (amino acids #1-605) (Homo sapiens (Human), UniProt O15297). Kind of assay: Wip1 full length phosphatase enzyme FDP assay. Format: biochemical. The following applies: fluorescein diphosphate (FDP) substrate, RT 2 hours, fluorescence Ex485/Em535.
recombinant His-tag Wip1 full length protein (amino acids #1-605), sequence (O15297 whole entry): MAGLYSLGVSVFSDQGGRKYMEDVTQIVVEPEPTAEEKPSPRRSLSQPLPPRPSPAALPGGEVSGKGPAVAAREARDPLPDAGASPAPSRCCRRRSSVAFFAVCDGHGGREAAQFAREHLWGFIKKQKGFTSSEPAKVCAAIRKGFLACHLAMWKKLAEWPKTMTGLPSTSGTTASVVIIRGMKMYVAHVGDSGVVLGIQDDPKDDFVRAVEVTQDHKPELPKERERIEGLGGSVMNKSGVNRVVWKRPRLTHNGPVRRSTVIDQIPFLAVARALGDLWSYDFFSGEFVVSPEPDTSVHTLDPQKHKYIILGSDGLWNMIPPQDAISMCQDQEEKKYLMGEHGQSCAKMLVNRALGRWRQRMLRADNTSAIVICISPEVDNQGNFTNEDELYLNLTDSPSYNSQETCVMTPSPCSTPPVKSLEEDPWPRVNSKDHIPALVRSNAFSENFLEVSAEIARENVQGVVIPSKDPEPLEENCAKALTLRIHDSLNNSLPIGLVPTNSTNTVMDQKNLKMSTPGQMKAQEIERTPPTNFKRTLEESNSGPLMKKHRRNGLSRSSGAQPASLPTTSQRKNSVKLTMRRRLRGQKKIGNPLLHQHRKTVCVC

recombinant His-tag Wip1(2-420) protein (amino acids #2-420), sequence (O15297 2-420): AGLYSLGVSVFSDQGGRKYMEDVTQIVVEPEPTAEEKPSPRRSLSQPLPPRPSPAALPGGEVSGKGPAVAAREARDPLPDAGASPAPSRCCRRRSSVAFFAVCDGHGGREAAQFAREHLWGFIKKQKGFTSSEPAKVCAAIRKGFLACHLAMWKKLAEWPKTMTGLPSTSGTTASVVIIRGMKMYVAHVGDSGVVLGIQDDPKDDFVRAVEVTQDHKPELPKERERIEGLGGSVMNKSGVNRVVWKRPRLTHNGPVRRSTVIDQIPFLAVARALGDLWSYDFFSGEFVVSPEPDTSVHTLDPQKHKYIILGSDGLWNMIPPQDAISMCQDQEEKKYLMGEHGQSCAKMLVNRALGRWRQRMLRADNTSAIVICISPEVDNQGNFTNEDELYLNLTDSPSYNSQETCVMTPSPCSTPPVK

For the molecule `CC[C@H](Nc1cc(Cl)cnc1C)c1ccc(C(=O)N[C@@H](CC2CCCC2)C(=O)N[C@@H]2CC2(F)F)s1` [Compound 47, (2S)-2-({5-[(1S)-1-[(5-chloro-2-methylpyridin-3-yl)amino]propyl]thiophen-2-yl}formamido)-3-cyclopentyl-N-[(1R)-2,2-difluorocyclopropyl]propanamide], the IC50 in assay [1] and in assay [2] was 11 nM each time.

For `CC[C@H](Nc1cc(Cl)cnc1C)c1ccc(C(=O)N[C@@H](CC2CCCC2)C(=O)N[C@H]2CC2(F)F)s1` [Compound 48, (2S)-2-({5-[(1S)-1-[(5-chloro-2-methylpyridin-3-yl)amino]propyl]thiophen-2-yl}formamido)-3-cyclopentyl-N-[(1S)-2,2-difluorocyclopropyl]propanamide], the IC50 was 5 nM in assay [1] and 8 nM in assay [2].

Regarding `COc1ncc(Cl)cc1N[C@@H](C)c1ccc(C(=O)N[C@@H](CC2CCCC2)C(=O)N[C@H]2CC2(F)F)s1` [Compound 49, (2S)-2-({5-[(1S)-1-[(5-chloro-2-methoxypyridin-3-yl)amino]ethyl]thiophen-2-yl}formamido)-3-cyclopentyl-N-[(1S)-2,2-difluorocyclopropyl]propanamide], the figures for the IC50 in assay [1] and in assay [2] were 104 nM and 164 nM, respectively.

With `CC[C@@H](Nc1cc(Cl)cnc1C)c1ccc(C(=O)N[C@@H](CC2CCCC2)C(=O)N[C@@H]2CC2(F)F)s1` [Compound 50, (2S)-2-({5-[(1R)-1-[(5-chloro-2-methylpyridin-3-yl)amino]propyl]thiophen-2-yl}formamido)-3-cyclopentyl-N-[(1R)-2,2-difluorocyclopropyl]propanamide], the IC50 in assay [1] was determined as 122 nM; in assay [2], 170 nM.

For the molecule `CC[C@@H](Nc1cc(Cl)cnc1C)c1ccc(C(=O)N[C@@H](CC2CCCC2)C(=O)N[C@H]2CC2(F)F)s1` [Compound 51, (2S)-2-({5-[(1R)-1-[(5-chloro-2-methylpyridin-3-yl)amino]propyl]thiophen-2-yl}formamido)-3-cyclopentyl-N-[(1S)-2,2-difluorocyclopropyl]propanamide], the IC50 in assay [1] was 74 nM; in assay [2], 113 nM.

`Cc1ccc(NC(=O)[C@H](CC2CCCC2)NC(=O)c2ccc([C@H](C)Nc3cc(Cl)cnc3C)s2)cn1` [Compound 53, (2S)-2-({5-[(1S)-1-[(5-chloro-2-methylpyridin-3-yl)amino]ethyl]thiophen-2-yl}formamido)-3-cyclopentyl-N-(6-methylpyridin-3-yl)propanamide]: the 50% inhibitory concentration (IC50) in assay [1] was 5 nM; in assay [2] it was 8 nM.

With `Cc1ncc(Cl)cc1NC(C)(C)c1ccc(C(=O)N[C@@H](CC2CCCC2)C(=O)NC23CC(C2)C3)s1` [Compound 54, (2S)-N-{bicyclo[1.1.1]pentan-1-yl}-2-[(5-{2-[(5-chloro-2-methylpyridin-3-yl)amino]propan-2-yl}thiophen-2-yl)formamido]-3-cyclopentylpropanamide], the IC50 is 8 nM in assay [1] and 11 nM in assay [2].

Regarding `Cc1ncc(Cl)cc1NC(C)(C)c1ccc(C(=O)N[C@@H](CC2CCCC2)C(=O)NC2CC2)s1` [Compound 55, (2S)-2-[(5-{2-[(5-chloro-2-methylpyridin-3-yl)amino]propan-2-yl}thiophen-2-yl)formamido]-3-cyclopentyl-N-cyclopropylpropanamide], the concentration for half-maximal inhibition (IC50) in assay [1] worked out at 29 nM; in assay [2] it was 36 nM.

For the molecule `C[C@@H](c1ccc(C(=O)N[C@@H](CC2CCCC2)C(=O)NC2CC2)s1)N1CCc2cc(F)c(Cl)cc21` [Compound 56, (2S)-2-({5-[(1S)-1-(6-chloro-5-fluoro-2,3-dihydro-1H-indol-1-yl)ethyl]thiophen-2-yl}formamido)-3-cyclopentyl-N-cyclopropylpropanamide], the IC50 in assay [1] stood at 39 nM; in assay [2], 50 nM.

Consider `C[C@H](c1ccc(C(=O)N[C@@H](CC2CCCC2)C(=O)NC2CC2)s1)N1CCc2cc(F)c(Cl)cc21` [Compound 57, (2S)-2-({5-[(1R)-1-(6-chloro-5-fluoro-2,3-dihydro-1H-indol-1-yl)ethyl]thiophen-2-yl}formamido)-3-cyclopentyl-N-cyclopropylpropanamide], for which the results for the IC50 in assay [1] and in assay [2] were 12 nM and 16 nM, respectively.

Turning to `Cc1ncc(Cl)cc1N[C@@H](C)c1ccc(C(=O)N[C@@H](CC2CCCC2)C(=O)NC2CCS(=O)(=O)CC2)s1` [Compound 58, (2S)-2-({5-[(1S)-1-[(5-chloro-2-methylpyridin-3-yl)amino]ethyl]thiophen-2-yl}formamido)-3-cyclopentyl-N-(1,1-dioxo-1λ^6-thian-4-yl)propanamide], the concentration for half-maximal inhibition (IC50) is 9 nM in assay [1] and 12 nM in assay [2].

As for `COCCOc1ccc(NC(=O)[C@H](CC2CCCC2)NC(=O)c2ccc([C@H](C)Nc3cc(Cl)cnc3C)s2)cc1` [Compound 59, (2S)-2-({5-[(1S)-1-[(5-chloro-2-methylpyridin-3-yl)amino]ethyl]thiophen-2-yl}formamido)-3-cyclopentyl-N-[4-(2-methoxyethoxy)phenyl]propanamide], the IC50 in assay [1] came out at 5 nM; in assay [2] it was 7 nM.

On to `COc1ncc(Cl)cc1N[C@@H](C)c1ccc(C(=O)N[C@@H](CC2CCCC2)C(=O)NC23CC(C2)C3)s1` [Compound 60, (2S)-N-{bicyclo[1.1.1]pentan-1-yl}-2-({5-[(1S)-1-[(5-chloro-2-methoxypyridin-3-yl)amino]ethyl]thiophen-2-yl}formamido)-3-cyclopentylpropanamide], for which the IC50 in assay [1] came out at 6 nM; in assay [2], 7 nM.

As for `Cc1cc(NC(=O)[C@H](CC2CCCC2)NC(=O)c2ccc([C@H](C)Nc3cc(Cl)cnc3C)s2)cc(C)n1` [Compound 62, (2S)-2-({5-[(1S)-1-[(5-chloro-2-methylpyridin-3-yl)amino]ethyl]thiophen-2-yl}formamido)-3-cyclopentyl-N-(2,6-dimethylpyridin-4-yl)propanamide], the figures for the IC50 in assay [1] and in assay [2] were 6 nM and 10 nM, respectively.

As to `Cc1ncc(Cl)cc1N[C@@H](C)c1ccc(C(=O)N[C@@H](CC2CCCC2)C(=O)NC2CC3CCC(C2)O3)s1` (stereo partly drawn) [Compound 63, (2S)-2-({5-[(1S)-1-[(5-chloro-2-methylpyridin-3-yl)amino]ethyl]thiophen-2-yl}formamido)-3-cyclopentyl-N-{8-oxabicyclo[3.2.1]octan-3-yl}propanamide], the IC50 in assay [1] is 15 nM; in assay [2], 22 nM.

As to `Cc1ncc(Cl)cc1N[C@@H](C)c1ccc(C(=O)N[C@@H](CC2CCCC2)C(=O)NC(C)(C)C#N)s1` [Compound 65, (2S)-2-({5-[(1S)-1-[(5-chloro-2-methylpyridin-3-yl)amino]ethyl]thiophen-2-yl}formamido)-N-(1-cyano-1-methylethyl)-3-cyclopentylpropanamide], the IC50 in assay [1] was determined as 8 nM; in assay [2], 10 nM.

Consider `CC[C@H](Nc1cc(Cl)cnc1C)c1ccc(C(=O)N[C@@H](CC2CCCC2)C(=O)NC23CC(C2)C3)s1` [Compound 68, (2S)-N-{bicyclo[1.1.1]pentan-1-yl}-2-({5-[(1S)-1-[(5-chloro-2-methylpyridin-3-yl)amino]propyl]thiophen-2-yl}formamido)-3-cyclopentylpropanamide], for which the results for the IC50 in assay [1] and in assay [2] were 6 nM and 8 nM, respectively.

Consider `COc1cc(NC(=O)[C@H](CC2CCCC2)NC(=O)c2ccc([C@H](C)Nc3cc(Cl)cnc3C)s2)ccc1F` [Compound 69, (2S)-2-({5-[(1S)-1-[(5-chloro-2-methylpyridin-3-yl)amino]ethyl]thiophen-2-yl}formamido)-3-cyclopentyl-N-(4-fluoro-3-methoxyphenyl)propanamide], for which the IC50 came to 4 nM in assay [1] and 7 nM in assay [2].

Regarding `C[C@H](Nc1cc(Cl)cnc1C1CC1)c1ccc(C(=O)N[C@@H](CC2CCCC2)C(=O)NC2CC2)s1` [Compound 70, (2S)-2-({5-[(1S)-1-[(5-chloro-2-cyclopropylpyridin-3-yl)amino]ethyl]thiophen-2-yl}formamido)-3-cyclopentyl-N-cyclopropylpropanamide], the IC50 was determined as 6 nM in assay [1] and 8 nM in assay [2].

With `C[C@@H](Nc1cc(Cl)cnc1C1CC1)c1ccc(C(=O)N[C@@H](CC2CCCC2)C(=O)NC2CC2)s1` [Compound 71, (2S)-2-({5-[(1R)-1-[(5-chloro-2-cyclopropylpyridin-3-yl)amino]ethyl]thiophen-2-yl}formamido)-3-cyclopentyl-N-cyclopropylpropanamide], the results for the half-inhibitory concentration (IC50) in assay [1] and in assay [2] were 127 nM and 215 nM, respectively.

With `Cc1ncc(Cl)cc1N[C@@H](C)c1ccc(C(=O)N[C@@H](CC23CC(C2)C3)C(=O)NC2CC2)s1` [Compound 72, (2S)-3-{bicyclo[1.1.1]pentan-1-yl}-2-({5-[(1S)-1-[(5-chloro-2-methylpyridin-3-yl)amino]ethyl]thiophen-2-yl}formamido)-N-cyclopropylpropanamide], the IC50 worked out at 103 nM in assay [1] and 136 nM in assay [2].

Consider `Cc1cc(NC(=O)[C@H](CC2CCCC2)NC(=O)c2ccc([C@H](C)Nc3cc(Cl)cnc3C)s2)ccn1` [Compound 73, (2S)-2-({5-[(1S)-1-[(5-chloro-2-methylpyridin-3-yl)amino]ethyl]thiophen-2-yl}formamido)-3-cyclopentyl-N-(2-methylpyridin-4-yl)propanamide], for which the IC50 in assay [1] is 4 nM; in assay [2], 8 nM.

On to `CNC(=O)[C@H](CC1CCCC1)NC(=O)c1ccc([C@H](C)Nc2cc(Cl)cnc2C)s1` [Compound 74, (2S)-2-({5-[(1S)-1-[(5-chloro-2-methylpyridin-3-yl)amino]ethyl]thiophen-2-yl}formamido)-3-cyclopentyl-N-methylpropanamide], for which the IC50 worked out at 21 nM in assay [1] and 27 nM in assay [2].

`Cc1ncc(Cl)cc1N[C@@H](C)c1ccc(C(=O)N[C@@H](CC2CCCC2)C(=O)NC2CC(C)C2)s1` (stereo partly drawn) [Compound 76, (2S)-2-({5-[(1S)-1-[(5-chloro-2-methylpyridin-3-yl)amino]ethyl]thiophen-2-yl}formamido)-3-cyclopentyl-N-(3-methylcyclobutyl)propanamide]: the IC50 in assay [1] amounted to 7 nM; in assay [2], 9 nM.
